Data from ChEMBL document CHEMBL1130430, “Assessment of solvation effects on calculated binding affinity differences: trypsin inhibition by flavonoids as a model system for congeneric series” (J Med Chem, 1997).

Columns and labels:
[1] = Disassociation constant (KI) was obtained from Cheng and Prusoff equation for quercetin trypsin complex
Serine protease 1 = molecular target: T1, Serine protease 1 (Bos taurus, UniProt P00760); assay: Inhibitory concentration of the compounds against Bovine trypsin enzyme.
T1 sequence (P00760 whole entry): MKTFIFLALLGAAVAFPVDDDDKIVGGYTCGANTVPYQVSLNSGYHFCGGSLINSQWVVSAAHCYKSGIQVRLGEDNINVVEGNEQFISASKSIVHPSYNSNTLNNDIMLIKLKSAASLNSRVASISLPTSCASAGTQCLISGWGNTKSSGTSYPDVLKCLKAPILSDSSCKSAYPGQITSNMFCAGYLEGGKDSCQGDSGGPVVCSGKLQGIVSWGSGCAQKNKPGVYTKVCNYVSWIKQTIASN

Compound O=c1cc(-c2ccc(O)cc2)oc2cc(O)cc(O)c12 [APIGENIN] has a Ki [1] of 39.5 µM and an IC50 (Serine protease 1) of 142 µM.

O=c1c(O)c(-c2ccc(O)cc2)oc2cc(O)cc(O)c12 [KAEMPFEROL] gave a Ki [1] of 29.5 µM and an IC50 (Serine protease 1) of 106 µM.

Compound O=c1cc(-c2ccc(O)c(O)c2)oc2cc(O)cc(O)c12 [LUTEOLIN] has a Ki [1] of 9.84 µM and an IC50 (Serine protease 1) of 35.3 µM.

Work on O=c1c(O)c(-c2ccc(O)cc2O)oc2cc(O)cc(O)c12 [MORIN] yielded a Ki [1] of 30.9 µM and an IC50 (Serine protease 1) of 111 µM.

O=c1c(O)c(-c2cc(O)c(O)c(O)c2)oc2cc(O)cc(O)c12 [MYRICETIN] showed a Ki [1] of 2.84 µM and an IC50 (Serine protease 1) of 10.2 µM.

For O=c1c(O)c(-c2ccc(O)c(O)c2)oc2cc(O)cc(O)c12 [QUERCETIN], the Ki [1] was 1.98 µM.

Work on COc1cc([C@@H]2Oc3c(O)cc([C@H]4Oc5cc(O)cc(O)c5C(=O)[C@@H]4O)cc3[C@H]2CO)ccc1O [SILICRISTIN] yielded a Ki [1] of 40.3 µM and an IC50 (Serine protease 1) of 144 µM.
